We go through twelve compounds from PMC6918269, “Caucasian Gentiana Species: Untargeted LC-MS Metabolic Profiling, Antioxidant and Digestive Enzyme Inhibiting Activity of Six Plants” (Metabolites, 2019).

A short description of experiment [1]: lipid peroxidation inhibition assay. The following applies: for LPA, lipid peroxidation inhibition activity: (caffeic acid IC50/sample IC50) × 1000, average ± S.D., text prints mg caffeic acid/g. The experiment is classed as biochemical. From the text: The previously described method was used to investigate the lipid peroxidation inhibition potency. […] The IC50 value was found as the effective sample concentration gave 50% reduction of optical density of initial solution. The value of lipid peroxidation inhibition (I) was found as a ratio of caffeic acid IC50 to sample IC50 [I = (IC50^Caffeic acid/ IC50^Sample) × 1000] and expressed as mg of caffeic acid in 1 g of sample. Values are expressed as mean obtained from five independent experiments.

Experiment [2] can be described thus: DPPH radical scavenging assay. It is filed as biochemical. The following applies: for DPPH, 2,2-diphenyl-1-picrylhydrazyl radical scavenging activity: (trolox IC50/sample IC50) × 1000, average ± S.D., text prints mg trolox/g. As for the experimental part: The 2,2-diphenyl-1-picrylhydrazyl (DPPH) radical scavenging activity was performed as described earlier. […] The IC50 value was found as the effective concentration at which DPPH radicals were scavenged by 50%. The value of antioxidant activity (A^DPPH) against DPPH radicals was found as a ratio of trolox IC50 to sample IC50 [A^DPPH = (IC50^Trolox/ IC50^Sample) × 1000] and expressed as mg of trolox in 1 g of sample. Values are expressed as mean obtained from five independent experiments.

Experiment [3] in a line: superoxide anion radical scavenging assay. The following applies: for O2^-, superoxide anion-radical scavenging activity: (quercetin IC50/sample IC50) × 1000, average ± S.D., text prints mg quercetin/g. It is filed as biochemical. From the text:
The known assay was used to determine superoxide anion radical scavenging activity. […] The IC50 value was found as the effective concentration at which superoxide anion radicals were scavenged by 50%. The value of antioxidant activity (A^O2•) against superoxide anion radicals was found as a ratio of quercetin IC50 to sample IC50 [A^O2• = (IC50^Quercetin/ IC50^Sample) × 1000] and expressed as mg of quercetin in 1 g of sample. Values are expressed as mean obtained from five independent experiments.

Experiment [4] has as its target T1, α-amylase from Aspergillus oryzae (Aspergillus oryzae, UniProt P0C1B3).
T1 construct: purchased Sigma-Aldrich 10065
Kind of experiment: α-amylase inhibiting potential, spectrophotometric assay. The experiment is classed as biochemical. The settings on record: (acarbose IC50/sample IC50) × 1000, average ± S.D., text prints mg acarbose/g. On the procedure:
(§1) The α-amylase inhibiting potential and α-glucosidase inhibiting potential were performed using spectrophotometric assays. The α-amylase from Aspergillus oryzae (3 U/mL) and α-glucosidase from Saccharomyces cerevisae (0.5 U/mL) were used as […]. […] Values are expressed as mean obtained from six independent experiments.

The target of experiment [5] is T2, α-glucosidase from Saccharomyces cerevisiae (Saccharomyces cerevisiae, UniProt P53341).
T2 construct: purchased Sigma-Aldrich G5003
Briefly: α-glucosidase inhibiting potential, spectrophotometric assay. The experiment is classed as biochemical. The following applies: (acarbose IC50/sample IC50) × 1000; average ± S.D.; text prints mg acarbose/g. On the procedure: as §1

Experiment [6] in a line: HPLC-DAD assay coupled with pre-chromatographic reaction with DPPH radicals. The experiment is classed as biochemical. The following applies: peak in G. asclepiadea herb extract, HPLC-DAD 210 nm. As for the experimental part: Scavenging activity against DPPH radicals of gentian herb extracts were medium to high and varied from 147.57 mg trolox/g for G. paradoxa to 580.71 mg trolox/g for G. asclepiadea (Table 3). Extracts of gentian roots were characterized by mostly low activity, with activity values <10 mg trolox/g. […] Figure 9a,b show chromatograms of G. asclepiadea herb extract before and after reaction with DPPH radical. […]. Additional phenolic groups such as 2,3-dihydroxybenzoyl in iridoid structures of gelidoside (rindoside) and trifloroside can increase the radical scavenging potential, but not much (20.82–25.14 mg trolox/g).
Figure 9 HPLC-DAD chromatograms (210 nm) of G. asclepiadea herb extract before (a) and after (b) pre-chromatographic reaction with DPPH radicals and G. gelida roots extract before (c) and after (d) pre-chromatographic reaction with DPPH radicals. Zone of compounds numbered as follows: i—loganic acid; ii—swertiamarin; iii—isoorientin-2″-O-glucoside; iv—gentiopicroside; v—mangiferin; vi—isovitexin-2″-O-glucoside; vii—isoorientin; viii—saponarin; ix—isovitexin; x—luteolin-7-O-glucoside; xi—apigenin-7-O-glucoside; xii—gentiopicroside-6″-O-glucoside; xiii—gelidoside (rindoside); xiv—trifloroside. […] TEXT PRINTED IN THE PICTURE: (b) i: 3% | (b) iii: 72% | (b) iv: 5% | (b) v: 98% | (b) vii: 85% | (b) xi: 11% | (d) iv: 5% | (d) xiii: 8% | (d) xiv: 5% DOUBTS OF THE COPYIST ABOUT THIS PICTURE: The picture prints no measure with the percentages; only the bare % values are copied. / Panel d, 8% (arrow): taken as peak xiii, with 5% taken as xiv; peaks xiii and xiv lie close together, so the assignment is not fully certain. / Panel b, 98% (arrow): taken as peak v, which lies on the shoulder of iv. / The percentages are printed under traces (b) and (d) but compare (a) with (b) and (c) with (d), so the panel choice is uncertain.
On the technique in general: Loss of DPPH colour is used to gauge radical scavenging.

The conditions of experiment [7]: cited from earlier work.
On the set-up of experiment [8]: method as in doi:10.1016/j.indcrop.2015.04.013. The settings on record: cited from earlier work.
On the set-up of experiment [9]: method as in doi:10.1016/j.indcrop.2015.04.013. The settings on record: G. cruciata (Serbia) study; cited from earlier work.

Converted amounts (≈) assume the structure as drawn. Where two headings read alike, the source gives them in different places. Marks after values point to notes of the source that are not given here. A value given as a limit tells only on which side of the number the result lay.

T2 sequence (P53341 whole entry): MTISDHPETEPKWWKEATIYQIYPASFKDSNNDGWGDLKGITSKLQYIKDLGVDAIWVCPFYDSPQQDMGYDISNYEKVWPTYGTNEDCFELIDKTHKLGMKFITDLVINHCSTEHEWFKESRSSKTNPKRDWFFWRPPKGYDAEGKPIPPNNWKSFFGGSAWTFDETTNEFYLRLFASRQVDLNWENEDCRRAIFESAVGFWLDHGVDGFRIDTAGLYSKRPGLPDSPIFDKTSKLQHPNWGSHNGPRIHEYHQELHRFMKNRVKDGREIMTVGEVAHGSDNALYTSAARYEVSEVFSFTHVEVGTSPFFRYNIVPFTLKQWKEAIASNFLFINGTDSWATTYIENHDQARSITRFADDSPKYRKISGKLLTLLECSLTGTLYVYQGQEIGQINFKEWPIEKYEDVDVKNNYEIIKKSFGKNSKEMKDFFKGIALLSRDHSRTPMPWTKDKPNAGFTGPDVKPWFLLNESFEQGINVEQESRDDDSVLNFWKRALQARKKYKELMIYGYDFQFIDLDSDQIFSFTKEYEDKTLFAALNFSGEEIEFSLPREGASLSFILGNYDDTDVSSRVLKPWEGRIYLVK

Consider `O=C(O)/C=C/c1ccc(O)c(O)c1` [Caffeic acid, caffeic acid, reference compound], for which the “IC50, lipid peroxidation inhibition” value in experiment [1] (positive control) turned out to be 58.96 ± 1.14 µg/mL (≈ 327 µM).

For the compound `C=C[C@@H]1C2=CCOC(=O)C2=CO[C@H]1O[C@@H]1O[C@H](CO)[C@@H](O)[C@H](O)[C@H]1O` [Gentiopicroside], the figures for the “DPPH, 2,2-diphenyl-1-picrylhydrazyl radical scavenging activity” value in experiment [2] and in experiment [2] (listed as gentiopicroside) were < 10.00 mg of trolox per g of dry extract weight and < 10 mg of trolox per g of dry extr, respectively. Further, the “O2^-, superoxide anion-radical scavenging activity” value in experiment [3] is reported as < 10.00 mg of quercetin per g of dry extract weight. Besides, in [1], the “LPA, lipid peroxidation inhibition activity” value is given as < 10.00 mg of caffeic acid per g of dry extract weight. Besides, the “αAIP, α-amylase inhibitory potential” value in experiment [4] is recorded as < 10.00 mg of acarbose per g of dry extract weight. Moreover, in experiment [5], the “αGIP, α-glycosidase inhibitory potential” value is recorded as < 10.00 mg of acarbose per g of dry extract weight. In addition, the “percentage of peak area reduction after pre-chromatographic reaction with DPPH radicals” value (from here on “percentage of peak area reduction”) in [6] is 3–5%.

For the compound `O=c1cc(-c2ccc(O)c(O)c2)oc2cc(O)c([C@@H]3O[C@H](CO)[C@@H](O)[C@H](O)[C@H]3O)c(O)c12` [Isoorientin, Luteolin-6-C-Glc (isoorientin)], the “αAIP, α-amylase inhibitory potential” value in experiment [4] is listed as 1242.03 ± 44.71 ^xxviii mg of acarbose per g of dry extract weight. Further, the “αGIP, α-glycosidase inhibitory potential” value in experiment [5] is 811.10 ± 32.44 ^xxxvi mg of acarbose per g of dry extract weight. Moreover, in [6], the “percentage of peak area reduction” value is listed as 72–98%.

On to `O=c1cc(-c2ccc(O)cc2)oc2cc(O)c([C@@H]3O[C@H](CO)[C@@H](O)[C@H](O)[C@H]3O)c(O)c12` [Isovitexin], for which the “DPPH, 2,2-diphenyl-1-picrylhydrazyl radical scavenging activity” value in [2] is reported as 425.11 ± 8.50 ^v mg of trolox per g of dry extract weight. Also, in [3], the “O2^-, superoxide anion-radical scavenging activity” value is reported as 211.63 ± 4.20 ^xii mg of quercetin per g of dry extract weight. The “LPA, lipid peroxidation inhibition activity” value in experiment [1] is recorded as 96.54 ± 3.73 ^xvii mg of caffeic acid per g of dry extract weight. Also, the “αAIP, α-amylase inhibitory potential” value is given as 108.35 ± 3.79 ^xxii mg of acarbose per g of dry extract weight in experiment [4] and “medium” in experiment [4] (listed as isovitexin).

Regarding `C[C@@H]1[C@H]2[C@H](O[C@@H]3O[C@H](CO)[C@@H](O)[C@H](O)[C@H]3O)OC=C(C(=O)O)[C@H]2C[C@@H]1O` [Loganic Acid, Loganic acid], the “DPPH, 2,2-diphenyl-1-picrylhydrazyl radical scavenging activity” value in experiment [2] is < 10.00 mg of trolox per g of dry extract weight; in experiment [2] (listed as loganic acid), < 10 mg of trolox per g of dry extr. In addition, in experiment [3], the “O2^-, superoxide anion-radical scavenging activity” value is < 10.00 mg of quercetin per g of dry extract weight. In addition, the “LPA, lipid peroxidation inhibition activity” value in experiment [1] is < 10.00 mg of caffeic acid per g of dry extract weight. The “αAIP, α-amylase inhibitory potential” value in [4] is < 10.00 mg of acarbose per g of dry extract weight. Also, the “αGIP, α-glycosidase inhibitory potential” value in [5] is < 10.00 mg of acarbose per g of dry extract weight. Also, the “percentage of peak area reduction” value in [6] is reported as 3–5%.

With `O=c1c2cc(O)c(O)cc2oc2cc(O)c([C@@H]3O[C@H](CO)[C@@H](O)[C@H](O)[C@H]3O)c(O)c12` [Mangiferin], the “DPPH, 2,2-diphenyl-1-picrylhydrazyl radical scavenging activity” value in experiment [2] was 3824.20 ± 76.48 ^viii mg of trolox per g of dry extract weight; in experiment [2] (listed as mangiferin) it was 3824.20 mg of trolox per g of dry extr. The “O2^-, superoxide anion-radical scavenging activity” value in [3] is 927.07 ± 18.54 ^xiv mg of quercetin per g of dry extract weight; in [3] (listed as mangiferin) it was 927.07 mg of quercetin per g of dry e. Further, the “LPA, lipid peroxidation inhibition activity” value is 522.14 ± 20.85 ^xx mg of caffeic acid per g of dry extract weight in experiment [1] and 522.14 mg of caffeic acid per g of dr in [1] (listed as mangiferin). Further, the “αAIP, α-amylase inhibitory potential” value in experiment [4] is 296.14 ± 10.36 ^xxiv mg of acarbose per g of dry extract weight. Further, the “αGIP, α-glycosidase inhibitory potential” value in experiment [5] is listed as 1562.84 ± 62.48 ^xxxvii mg of acarbose per g of dry extract weight. The “percentage of peak area reduction” value in experiment [6] is on record as 72–98%.

Turning to `O=c1c(O)c(-c2ccc(O)c(O)c2)oc2cc(O)cc(O)c12` [Quercetin, quercetin, reference compound], the “IC50, superoxide anion radicals scavenged by 50%” value in experiment [3] (positive control) was 21.74 ± 0.42 µg/mL (≈ 71.9 µM).

With `O=C1O[C@H]([C@@H](O)CO)C(O)=C1O` [ascorbic acid], the results for the “IC50 in the DPPH assay” value in [7] (Serbian species G. asclepiadea study) and in experiment [7] (Serbian species G. cruciata study) were 5.23 µg/mL (≈ 29.7 µM) and 6.05 µg/mL (≈ 34.4 µM), respectively.

Turning to `Cc1cc(C(C)(C)C)c(O)c(C(C)(C)C)c1` [butylated hydroxytoluene], the “IC50, inhibitory activity toward lipid peroxidation” value in experiment [8] was 1.00 µg/mL (≈ 4.54 µM).

Take `O=C(O)c1cc(O)c(O)c(O)c1` [gallic acid]: the “superoxide scavenging potential (IC50)” value in experiment [9] is 360 µg/mL.

As to `O=c1cc(-c2ccc(O)c(O)c2)oc2cc(O)c([C@@H]3O[C@H](CO)[C@@H](O)[C@H](O)[C@H]3O[C@@H]3O[C@H](CO)[C@@H](O)[C@H](O)[C@H]3O)c(O)c12` [isoorientin-2″-O-glucoside, Isoorientin-2″-O-Glc], the “percentage of peak area reduction” value in experiment [6] is reported as 72–98%.

Regarding `Cc1c(C)c2c(c(C)c1O)CCC(C)(C(=O)O)O2` (stereo not drawn) [trolox, reference compound], the “IC50, DPPH radicals scavenged by 50%” value in [2] (positive control) was found to be 11.62 ± 0.23 µg/mL (≈ 46.4 µM).
